Consider 16 compounds from patent US10981906B2, “Substituted pyrrolopyridine JAK inhibitors and methods of making and using the same” (ACLARIS THERAPEUTICS, INC., priority 2017, dated 2021).

In one assay the target is JAK3 (a.a. 781-1124) (Homo sapiens (Human), UniProt P52333). The experiment in a line: JAK3 enzyme activity assay (SRCtide phosphorylation, Caliper). In kind it is biochemical. The following applies: 2.5 nM JAK3, 1 μM SRCtide, 1 uM ATP, 40 minutes; read-out: JAK3 Inhibition IC50. The protocol:
The activity of JAK3 (a.a. 781-1124, ThermoFisher) was quantified by measuring the phosphorylation of SRCtide (FAM-GEEPLYWSFPAKKK-NH2). Kinase reactions were run in a 384-well Greiner plate with 2% final DMSO concentration under the buffer conditions of 20 mM HEPES, pH 7.5, 10 mM MgCl2, 0.01% BSA, and 0.0005% Tween-20. The kinase reaction components were 2.5 nM JAK3, 1 μM SRCtide peptide and 1 uM ATP. Examples were tested in dose-response starting at 2 μM (11 concentrations, 3-fold serial dilution, duplicate reactions). The reactions were incubated at room temperature for 40 minutes, then stopped by adding a 1:1 volume of 30 mM EDTA in 20 mM HEPES, pH 7.5 (15 mM EDTA final). After the reaction was stopped, the phosphorylated and unphosphorylated peptides were separated and quantified using a Caliper LC3000/EZ-Reader system and HTS Well Analyzer Software (Caliper, A PerkinElmer Company, Hopkinton, Mass.). GraFit (Erithacus Software Ltd., Horley, U.K.) was used to calculate inhibitor potency by fitting dose-response data to the 4-parameter logistical IC50 equation.
(§1) Background signal is defined in the absence of enzyme and uninhibited signal is defined in the presence of vehicle (2% DMSO) alone. Compounds were evaluated in an 11 point dose-response ranging from […] to 0.34 nM. IC50 values of compounds are determined using a 4 parameter logistical fit of emission ratio as a function of the concentration of compound.

In another assay the target is JAK1 (Homo sapiens (Human), UniProt P23458). The assay is described as follows: JAK1 enzyme activity assay (Thermo Fisher SelectScreen Z-lyte). In kind it is biochemical. The note with it: 1 hour kinase reaction, read-out: JAK1 Inhibition IC50. The protocol:
The inhibitory potency of candidate compounds of JAK1 done at Thermo Fisher Scientific in their Selectscreen using a Z-lyte assay. The 2×JAK1/Tyr 06 mixture is prepared in 50 mM HEPES pH 6.5, 0.01% BRIJ-35, 10 mM MgCl2, 1 mM EGTA, 0.02% NaN3. The final 10 μL of the Kinase Reaction consists of 21.2-91.5 ng JAK1 and 2 μM Tyr 06 in 50 mM HEPES pH 7.0, 0.01% BRIJ-35, 10 mM MgCl2, 1 mM EGTA, 0.01% NaN3. After the 1 hour Kinase Reaction incubation, 5 μL of a 1:128 dilution of Development Reagent is added.
as §1

The test system of assay [1] is IL-2 stimulated STAT5 phosphorylation on Tyr694 (JAK1/3). The experiment in a line: JAK1/3 cellular target modulation: IL-2 stimulated phospho-STAT5 in PBMC. The note with it: IL-2 25 ng/ml, 1 hour compound preincubation, read-out: IL2-STAT5 Inhibition IC50. The format is cell-based. The source says:
(§2) Target modulation was based upon the ability of a compound to inhibit JAK isoform specific phosphorylation of selected substrates. IL-2 stimulated STAT5 phosphorylation on Tyr694 was used to assess JAK1/3 compound selectivity. GM-CSF stimulated STAT5 phosphorylation on Tyr694 was used to assess JAK2 compound selectivity. IFNγ stimulated STAT1 phosphorylation on Tyr701 was used to assess JAK1/2 compound selectivity. For all three assays, human PBMC from frozen stocks were thawed, pelleted, resuspended in complete media (90% RPMI, 10% heat inactivated FBS, 10 mM HEPES, 47 μM 2-ME, pen/strep) and placed in wells of a 96 well V-bottom plate at 200,000 per well in 120 μl complete media. Compounds were added as 15 μl per well of 10× working stock solutions in complete media with 1% DMSO (or medium with 1% DMSO for controls) and placed on a plate shaker in a 37° C. incubator with 5% CO2 for 1 hour with gentle shaking (setting of 3). Stimulation used the addition of soluble cytokines. For the JAK1/3 phospho-STAT5 assay, 15 μl of 10× working stock recombinant human IL-2 was added to a final concentration of 25 ng/ml. For the JAK2 phospho-STAT5 assay, 15 μl of 10× working stock recombinant human GM-CSF was added to a final concentration of 5 ng/ml. For the JAK1/2 phospho-STAT1 assay, 15 μl of 10× working stock of recombinant human IFNγ was added to a final concentration of 10 ng/ml. Plates were then placed back on the plate shaker in the incubator for an additional 5, 5 and 10 minutes respectively upon which the plates were removed from the incubator, sealed with a plate sealer and the cells pelleted at 400×g for 5 minutes. After pelleting, the media was removed by aspiration and the cells were lysed in ELISA specific cell lysis buffer. The levels of phospho-STAT5 were determined using a Phospho (Tyr694)/Total STAT5a,b Whole Cell Lysate kit from Meso Scale Discovery. Levels of phospho-STAT1 were determined using a CST-PathScan Phospho-STAT1 (Tyr701) Sandwich ELISA kit.

Assay [2] relates to IFNγ stimulated STAT1 phosphorylation on Tyr701 (JAK1/2). The assay is described as follows: JAK1/2 cellular target modulation: IFNγ stimulated phospho-STAT1 in PBMC. The format is cell-based. The note with it: IFNγ 10 ng/ml, 1 hour compound preincubation, read-out: Infγ-STAT1 IC50.
Text: as §2

pIC50: −log10 of the molar value. Counter-ions that a name gives are not always drawn. Like-named read-outs stand apart in the source and are kept apart here.

Sequence of JAK1 (P23458 whole entry): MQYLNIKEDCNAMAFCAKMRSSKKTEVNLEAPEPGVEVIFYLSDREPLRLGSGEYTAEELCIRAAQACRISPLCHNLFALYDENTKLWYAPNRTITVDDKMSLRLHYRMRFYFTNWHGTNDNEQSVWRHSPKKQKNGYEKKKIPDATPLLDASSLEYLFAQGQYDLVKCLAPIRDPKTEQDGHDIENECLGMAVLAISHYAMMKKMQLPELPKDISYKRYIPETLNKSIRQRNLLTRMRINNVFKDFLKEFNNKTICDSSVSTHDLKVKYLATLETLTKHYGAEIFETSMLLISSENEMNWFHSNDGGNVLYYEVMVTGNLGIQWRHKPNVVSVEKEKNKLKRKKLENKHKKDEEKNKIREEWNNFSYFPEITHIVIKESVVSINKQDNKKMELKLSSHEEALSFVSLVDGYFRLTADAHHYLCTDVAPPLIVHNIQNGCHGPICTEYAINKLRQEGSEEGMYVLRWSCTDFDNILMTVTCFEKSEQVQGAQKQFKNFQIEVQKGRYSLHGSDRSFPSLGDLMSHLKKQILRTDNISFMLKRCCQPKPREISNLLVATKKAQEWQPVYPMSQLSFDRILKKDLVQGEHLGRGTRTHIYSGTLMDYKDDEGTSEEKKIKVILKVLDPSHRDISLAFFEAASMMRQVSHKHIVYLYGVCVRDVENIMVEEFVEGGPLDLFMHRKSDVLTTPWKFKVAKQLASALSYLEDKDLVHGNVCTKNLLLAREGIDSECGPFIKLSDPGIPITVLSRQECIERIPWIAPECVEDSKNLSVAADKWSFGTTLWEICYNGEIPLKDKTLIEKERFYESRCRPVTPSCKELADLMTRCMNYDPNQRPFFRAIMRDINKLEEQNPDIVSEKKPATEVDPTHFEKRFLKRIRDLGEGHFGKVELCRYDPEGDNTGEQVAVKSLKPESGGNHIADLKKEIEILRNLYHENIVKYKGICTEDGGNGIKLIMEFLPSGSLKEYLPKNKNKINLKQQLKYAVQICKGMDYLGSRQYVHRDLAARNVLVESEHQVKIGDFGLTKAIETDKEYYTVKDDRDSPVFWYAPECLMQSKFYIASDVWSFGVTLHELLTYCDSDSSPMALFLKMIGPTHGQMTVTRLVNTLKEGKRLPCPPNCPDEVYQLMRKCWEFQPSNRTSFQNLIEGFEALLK
Sequence of JAK3 (a.a. 781-1124) (P52333 781-1124): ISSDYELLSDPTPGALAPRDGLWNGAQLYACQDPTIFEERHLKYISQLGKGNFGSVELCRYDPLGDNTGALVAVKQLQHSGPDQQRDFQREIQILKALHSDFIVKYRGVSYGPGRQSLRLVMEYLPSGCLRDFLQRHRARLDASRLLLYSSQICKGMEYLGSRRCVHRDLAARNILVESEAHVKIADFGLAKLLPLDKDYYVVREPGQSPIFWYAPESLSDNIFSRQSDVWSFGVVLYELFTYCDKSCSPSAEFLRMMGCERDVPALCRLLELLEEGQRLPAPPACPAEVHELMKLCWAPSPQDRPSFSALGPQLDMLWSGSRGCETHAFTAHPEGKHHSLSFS

`CCOC(=O)c1cnc2[nH]ccc2c1N(C)[C@H]1CC[C@H](CS(=O)(=O)NC)CC1` [Example 94, ethyl 4-(methyl((1r,4r)-4-((N-methylsulfamoyl)methyl)cyclohexyl)amino)-1H-pyrrolo[2,3-b]pyridine-5-carboxylate]: the negative logarithm of the IC50 (pIC50) at JAK3 (a.a. 781-1124) is 7.00 to 8.00.

With `COCCOC(=O)c1cnc2[nH]ccc2c1N[C@H]1CCC[C@H](CCC#N)C1` (racemic) [Example 148, racemic, trans-2-methoxyethyl 4-((3-(2-cyanoethyl)cyclohexyl)amino)-1H-pyrrolo[2,3-b]pyridine-5-carboxylate], the negative-log IC50 (pIC50) at JAK1 is 7.00 to 8.00; at JAK3 (a.a. 781-1124), not below 8.00; in assay [1] (Homo sapiens, PBMC), 6.00 to 7.00; in assay [2] (Homo sapiens, PBMC) it was 6.00 to 7.00.

As for `CCOC(=O)c1cnc2[nH]ccc2c1NC1CCC(CCC#N)C1` (mixture of isomers) [Example 153, Ethyl 4-((3-(2-cyanoethyl)cyclopentyl)amino)-1H-pyrrolo[2,3-b]pyridine-5-carboxylate as a mixture of 2 stereoisomers], the negative logarithm of the IC50 (pIC50) at JAK1 is not below 8.00; on JAK3 (a.a. 781-1124), not below 8.00; in assay [1] (Homo sapiens, PBMC), not below 7.00; in assay [2] (Homo sapiens, PBMC), 6.00 to 7.00.

For the compound `CCOC(=O)c1cnc2[nH]ccc2c1NC1CCC(CCC#N)C1` (single isomer, unassigned; stereoisomer 2) [Example 155, Ethyl 4-((3-(2-cyanoethyl)cyclopentyl)amino)-1H-pyrrolo[2,3-b]pyridine-5-carboxylate, single stereoisomer 2], the negative logarithm of the IC50 (pIC50) on JAK1 was 6.00 to 7.00; on JAK3 (a.a. 781-1124), 7.00 to 8.00; in assay [1] (human PBMC) it was 6.00 to 7.00; in assay [2] (human PBMC), less than 6.00.

On to `C[C@@H]1CCN(C(=O)CC#N)C[C@@H]1Nc1c(C(=O)O)cnc2[nH]ccc12` [Example 120, 4-(((3R,4R)-1-(2-cyanoacetyl)-4-methylpiperidin-3-yl)amino)-1H-pyrrolo[2,3-b]pyridine-5-carboxylic acid trifluoroacetic acid Salt], for which the pIC50 on JAK1 is 6.00 to 7.00; on JAK3 (a.a. 781-1124), 6.00 to 7.00; in assay [1] (Homo sapiens, PBMC), less than 6.00.

For the compound `N#CCC[C@H]1CCC[C@H](Nc2c(C(=O)O)cnc3[nH]ccc23)C1` [Example 147, 4-(((1S,3R)-3-(2-cyanoethyl)cyclohexyl)amino)-1H-pyrrolo[2,3-b]pyridine-5-carboxylic acid], the pIC50 was 6.00 to 7.00 at JAK1; 6.00 to 7.00 on JAK3 (a.a. 781-1124); 6.00 to 7.00 in assay [1] (Homo sapiens, PBMC); less than 6.00 in assay [2] (Homo sapiens, PBMC).

For `CCOC(=O)c1cnc2[nH]ccc2c1N[C@H]1CCC[C@@H](CCC#N)C1` (single isomer, unassigned; enantiomer 1) [Example 135, (cis) ethyl 4-((3-(2-cyanoethyl)cyclohexyl)amino)-1H-pyrrolo[2,3-b]pyridine-5-carboxylate, enantiomer 1], the pIC50 at JAK1 was not below 8.00; on JAK3 (a.a. 781-1124) it was not below 8.00; in assay [1] (Homo sapiens, PBMC), not below 7.00; in assay [2] (Homo sapiens, PBMC), not below 7.00.

As to `CCOC(=O)c1cnc2[nH]ccc2c1N[C@H]1CCCN(C(=O)CC#N)C1` [Example 143, ethyl (S)-4-((1-(2-cyanoacetyl)piperidin-3-yl)amino)-1H-pyrrolo[2,3-b]pyridine-5-carboxylate], the negative-log IC50 (pIC50) on JAK1 is 6.00 to 7.00; at JAK3 (a.a. 781-1124) it was 7.00 to 8.00; in assay [1] (Homo sapiens, PBMC), less than 6.00.

As for `CCOC(=O)c1cnc2[nH]ccc2c1N[C@@H]1CC[C@@H](O)C1` (single isomer, unassigned) [Example 72, (trans)-ethyl 4-((3-hydroxycyclopentyl)amino)-1H-pyrrolo [2,3-b]pyridine-5-carboxylate], the pIC50 at JAK1 was 7.00 to 8.00; on JAK3 (a.a. 781-1124), 7.00 to 8.00; in assay [1] (Homo sapiens, PBMC), 6.00 to 7.00; in assay [2] (Homo sapiens, PBMC), less than 6.00.

Consider `CCOC(=O)c1cnc2[nH]ccc2c1NC1CCC(OCCC#N)C1` (stereo not shown) [Example 113, ethyl 4-((3-(2-cyanoethoxy)cyclopentyl)amino)-1H-pyrrolo[2,3-b]pyridine-5-carboxylate], for which the pIC50 on JAK1 was 7.00 to 8.00; at JAK3 (a.a. 781-1124), 7.00 to 8.00; in assay [1] (Homo sapiens, PBMC), 6.00 to 7.00; in assay [2] (Homo sapiens, PBMC) it was less than 6.00.

`N#CCC(=O)N1CCC[C@@H](Nc2c(C(=O)O)cnc3[nH]ccc23)C1` [Example 121, (R)-4-((1-(2-cyanoacetyl)piperidin-3-yl)amino)-1H-pyrrolo[2,3-b]pyridine-5-carboxylic acid trifluoroacetic acid Salt]: the pIC50 was 6.00 to 7.00 on JAK1; 6.00 to 7.00 on JAK3 (a.a. 781-1124); less than 6.00 in assay [1] (Homo sapiens, PBMC).

Take `CCOC(=O)c1cnc2[nH]ccc2c1N[C@@H]1CCCN(C(=O)[C@@H]2CC2(F)F)C1` [Example 156, ethyl 4-(((R)-1-((S)-2,2-difluorocyclopropane-1-carbonyl)piperidin-3-yl)amino)-1H-pyrrolo[2,3-b]pyridine-5-carboxylate]: the negative logarithm of the IC50 (pIC50) is 7.00 to 8.00 on JAK3 (a.a. 781-1124) and 6.00 to 7.00 in assay [1] (Homo sapiens, PBMC).

As for `CCOC(=O)c1cnc2[nH]ccc2c1N(C)[C@H]1CC[C@H](OC(=O)CC#N)C1` (single isomer, unassigned) [Example 69, (trans)-ethyl 4-((3-(2-cyanoacetoxy)cyclopentyl)(methyl)amino)-1H-pyrrolo[2,3-b]pyridine-5-carboxylate], the pIC50 on JAK1 was 6.00 to 7.00; on JAK3 (a.a. 781-1124) it was 6.00 to 7.00; in assay [1] (human PBMC) it was less than 6.00.

Turning to `C[C@@H]1CCN(C(=O)CC#N)C[C@@H]1Nc1c(C(=O)OC(C)(C)C)cnc2[nH]ccc12` [Example 119, tert-butyl 4-(((3R,4R)-1-(2-cyanoacetyl)-4-methylpiperidin-3-yl)amino)-1H-pyrrolo[2,3-b]pyridine-5-carboxylate], the pIC50 on JAK1 is 6.00 to 7.00; at JAK3 (a.a. 781-1124), 6.00 to 7.00; in assay [1] (Homo sapiens, PBMC), less than 6.00.

Turning to `CCOC(=O)c1cnc2[nH]ccc2c1N(C)[C@H]1CC[C@H](O)C1` (single isomer, unassigned) [Example 68A, (trans)-Ethyl 4-((-3-hydroxycyclopentyl)(methyl)amino)-1H-pyrrolo[2,3-b] pyridine-5-carboxylate], the pIC50 on JAK1 is 6.00 to 7.00; at JAK3 (a.a. 781-1124), 6.00 to 7.00; in assay [1] (Homo sapiens, PBMC) it was less than 6.00.

On to `CCOC(=O)c1cnc2[nH]ccc2c1N(C)[C@@H]1CC[C@@H](O)C1` (single isomer, unassigned) [Example 68B, (trans)-Ethyl 4-((-3-hydroxycyclopentyl)(methyl)amino)-1H-pyrrolo[2,3-b]pyridine-5-carboxylate], for which the negative-log IC50 (pIC50) was 6.00 to 7.00 at JAK1; 7.00 to 8.00 at JAK3 (a.a. 781-1124); less than 6.00 in assay [1] (Homo sapiens, PBMC).

What is called pIC50 is the negative decadic logarithm of the IC50, by convention in mol/L.
